In ChEMBL document CHEMBL1134853, “Essential structural factors of acetogenins, potent inhibitors of mitochondrial complex I” (Bioorg Med Chem Lett, 2002) one finds IC50 data, which are given here for 2 molecules.

In this assay the target is T1, NADH dehydrogenase [ubiquinone] 1 alpha subcomplex subunit 11 (Bos taurus, UniProt Q8HXG6).
T1 sequence (Q8HXG6 whole entry): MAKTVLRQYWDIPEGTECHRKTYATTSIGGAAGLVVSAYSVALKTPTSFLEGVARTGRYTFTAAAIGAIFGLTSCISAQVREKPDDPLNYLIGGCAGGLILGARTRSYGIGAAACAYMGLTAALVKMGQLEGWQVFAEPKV
In words: Inhibitory activity against bovine heart mitochondrial NADH ubiquinone oxidoreductase (complex I).

One may read the IC50 as the concentration that gives 50% inhibition. A high value points to weaker potency. Molecule `C[C@H]1C=C(CCCCCCCCCCCC[C@@H](O)[C@H]2CC[C@H]([C@H]3CC[C@H]([C@@H](C)O)O3)O2)C(=O)O1` yielded an IC50 of 3.1 nM. Then `CCCCCCCCCC[C@@H](O)[C@H]1CC[C@H]([C@H]2CC[C@H]([C@H](O)CCCCCCCCCCCCC3=C[C@H](C)OC3=O)O2)O1` [ISODESAACETYLUVARICIN], with 0.9 nM.
